This note sets out measurements from paper PMC11855827, “High-Throughput Screening of Five Compound Libraries for Anthelmintic Activity and Toxicity Leads to the Discovery of Two Flavonoid Compounds” (International Journal of Molecular Sciences, 2025).

Read-outs that look alike come from different tables or passages of the source.

The test system of the assay is C. elegans. As to the kind of experiment: microbe, parasite or virus in culture. Conditions: Caenorhabditis elegans.
The mark [1] stands for this setting: 0 h, read-out: Percentage of motility inhibition 0 h, Table S2, C. elegans SS assay, 110 μM, 0 h, averages of 4 data points.
Setting [2] is: 24 h, read-out: Percentage of motility inhibition 24 h, Table S2, C. elegans SS assay, 110 μM, 24 h, averages of 4 data points.

For the compound `CC(CC(=O)C[C@@H](C)[C@H]1CC(=O)[C@@]2(C)C3=C(C(=O)C[C@]12C)[C@@]1(C)CCC(=O)C(C)(C)[C@@H]1C[C@@H]3O)C(=O)O` (stereo partly shown) [Ganoderic acid D], the inhibition (as a rule, the change of the read-out against control, counted positive when it falls) at 110 µM reads like this: under setting [1], 0%; under setting [2], 21%.

In the case of `CC(C)=CCC[C@](C)(O[C@@H]1O[C@H](CO[C@H]2O[C@H](CO)[C@@H](O)[C@@H]2O)[C@@H](O)[C@H](O)[C@H]1O)[C@H]1CC[C@]2(C)[C@@H]1[C@H](O)C[C@@H]1[C@@]3(C)CC[C@H](O)C(C)(C)[C@@H]3[C@@H](O)C[C@]12C` [Ginsenoside F5], the inhibition at 110 µM runs as follows: under setting [1], 43%; under setting [2], 17%.

As to `C=C1C(=O)[C@]23[C@H](O)[C@H]1CC[C@H]2[C@@]12CO[C@]3(O)[C@@H](O)[C@@H]1C(C)(C)CC[C@@H]2O` [Oridonin], the inhibition at 110 µM by setting is: under setting [1], 0%; under setting [2], 3%.

Regarding `C=C1C[C@@]23CC[C@H]4[C@@](C)(CCC[C@@]4(C)C(=O)O)[C@@H]2CC[C@]1(O)C3` [Steviol], the inhibition at 110 µM under setting [1] was determined as 13% and the inhibition at 110 µM under setting [2] was determined as 34%.

For `CN1Cc2c(ccc3c2OCO3)-c2ccc3cc4c(cc3c21)OCO4` [Dihydrosanguinarine], the inhibition at 110 µM under setting [1] was determined as 0% and the inhibition at 110 µM under setting [2] is 0%.

On to `c1ccc2c(c1)[nH]c1cnccc12` [Norharmane], for which the inhibition at 110 µM under setting [1] was 0% and the inhibition at 110 µM under setting [2] worked out at 9%.

Turning to `Nc1ncnc2c1ncn2[C@@H]1O[C@H](CO)[C@@H](O)[C@H]1O` [Adenosine], the inhibition at 110 µM amounted to 0% under setting [1] and 9% under setting [2].

As for `CC(=O)OC(C)(C)C1CC=C(C)CC1` (stereo not drawn) [α-Terpinyl acetate], the inhibition at 110 µM runs as follows: under setting [1], 18%; under setting [2], 28%.

Take `CCCCC(O)(Cn1cncn1)c1ccc(Cl)cc1Cl` (stereo not shown) [Hexaconazole]: the inhibition at 110 µM reads like this: under setting [1], 14%; under setting [2], 22%.

In the case of `CC(C)[C@H](N)C(=O)O` [L-Valine], the inhibition at 110 µM is, setting by setting: under setting [1], 0%; under setting [2], 12%.

For `CC[C@@H]1[C@H]2CCCCN3[C@H]2[C@H](C[C@H]3[C@@H]2C[C@H](C)C(=O)O2)[C@@H]2[C@H]1OC(=O)[C@H]2C` [Tuberostemonine], the inhibition at 110 µM runs as follows: under setting [1], 6%; under setting [2], 4%.

`Cc1cc(NS(=O)(=O)c2ccc(N)cc2)no1` [Sulfamethoxazole]: the inhibition at 110 µM under setting [1] is 30% and the inhibition at 110 µM under setting [2] came out at 11%.

`COc1c2ccoc2nc2c(O)cccc12` [Robustine]: the inhibition at 110 µM runs as follows: under setting [1], 16%; under setting [2], 7%.

Take `O=C(O)CC(O)C(=O)O` (stereo not shown) [Malic acid]: the inhibition at 110 µM is, setting by setting: under setting [1], 2%; under setting [2], 14%.

With `CC(C)=CCC[C@](C)(O)[C@H]1CC[C@]2(C)[C@@H]1[C@H](O)C[C@@H]1[C@@]3(C)CC[C@H](O)C(C)(C)[C@@H]3[C@@H](O[C@@H]3O[C@H](CO)[C@@H](O)[C@H](O)[C@H]3O[C@@H]3O[C@@H](C)[C@H](O)[C@@H](O)[C@H]3O)C[C@]12C` [Ginsenoside Rg2], the inhibition at 110 µM reads like this: under setting [1], 8%; under setting [2], 0%.

In the case of `C[C@@H]1O[C@@H](O[C@H]2[C@H](OC(=O)[C@]34CCC(C)(C)C[C@H]3C3=CC[C@@H]5[C@@]6(C)C[C@H](O)[C@H](O[C@@H]7O[C@H](CO)[C@@H](O)[C@H](O)[C@H]7O)C(CO)(CO)[C@@H]6CC[C@@]5(C)[C@]3(C)C[C@H]4O)OC[C@H](O)[C@@H]2O)[C@H](O)[C@H](O)[C@H]1O[C@@H]1OC[C@@H](O)[C@H](O[C@@H]2OC[C@](O)(CO)[C@H]2O)[C@H]1O` [Platycodin D], the inhibition at 110 µM under setting [1] amounted to 0% and the inhibition at 110 µM under setting [2] worked out at 15%.

`CN1[C@@H]2CC[C@H]1C[C@@H](O)C2` [Tropine]: the inhibition at 110 µM was determined as 9% under setting [1] and 0% under setting [2].

As for `Cc1cc(C(C#N)c2ccc(Cl)cc2)c(Cl)cc1NC(=O)c1cc(I)cc(I)c1O` (stereo not shown) [Closantel], the inhibition at 110 µM came out at 4% under setting [1] and 48% under setting [2].

On to `OCc1c[nH]c2ccccc12` [Indole‐3‐carbinol], for which the inhibition at 110 µM by setting is: under setting [1], 0%; under setting [2], 18%.

For `CN(C)c1cc(NC(=O)CNC(C)(C)C)c(O)c2c1C[C@H]1C[C@H]3[C@H](N(C)C)C(O)=C(C(N)=O)C(=O)[C@@]3(O)C(O)=C1C2=O` [Tigecycline], the inhibition at 110 µM by setting is: under setting [1], 31%; under setting [2], 19%.

For `COc1cc(O)c2c(=O)cc(-c3ccc(O)c(OC)c3)oc2c1` [Velutin], the inhibition at 110 µM by setting is: under setting [1], 11%; under setting [2], 19%.

Regarding `CCc1nc(N)nc(N)c1-c1ccc(Cl)cc1` [Pyrimethamine], the inhibition at 110 µM under setting [1] was found to be 35% and the inhibition at 110 µM under setting [2] turned out to be 2%.

For `COC(=O)C[C@](O)(CCC(C)(C)O)C(=O)O[C@@H]1C(OC)=C[C@]23CCCN2CCc2cc4c(cc2[C@H]13)OCO4` [Harringtonine], under setting [2], the inhibition at 110 µM amounted to 0%.

As for `O=C(/C=C/c1ccc(O)cc1)OC[C@H]1O[C@@H](Oc2c(-c3ccc(O)cc3)oc3cc(O)cc(O)c3c2=O)[C@H](O)[C@@H](O)[C@@H]1O` [Tiliroside], the inhibition at 110 µM is 2% (0 h, read-out: Percentage of motility inhibition 0 h) and 9% (24 h, read-out: Percentage of motility inhibition 24 h).

Turning to `COc1ccc2c(c1OC)CN1CCc3cc4c(cc3C1C2)OCO4` (stereo not shown) [Tetrahydroberberine], the inhibition at 110 µM under setting [1] was 2% and the inhibition at 110 µM under setting [2] was 0%.

In the case of `O=c1cc(-c2ccccc2)oc2cc(O)cc(O)c12` [Chrysin], the inhibition at 110 µM was 15% under setting [1] and 0% under setting [2].

As to `Cn1c(N2CCCCS2(=O)=O)nc(C(=O)NCc2ccc(F)cc2)c(O)c1=O` [BMS‐707035], the inhibition at 110 µM reads like this: under setting [1], 0%; under setting [2], 1%.

Turning to `O=C(Nc1ccc(Oc2ccc(Cl)cc2)c(Cl)c1)c1cc(I)cc(I)c1O` [Rafoxanide], the inhibition at 110 µM under setting [1] is 8% and the inhibition at 110 µM under setting [2] turned out to be 1%.

With `C=C1C(=O)O[C@@H]2O[C@@]3(C)CC[C@H]4[C@H](C)CC[C@@H]1[C@@]24OO3` [Artemisitene], the inhibition at 110 µM runs as follows: under setting [1], 0%; under setting [2], 9%.

Take `C/C(=C\C(=O)OCCCCCCCCC(=O)O)C[C@@H]1OC[C@H](C[C@@H]2O[C@H]2[C@@H](C)[C@H](C)O)[C@@H](O)[C@H]1O` [Mupirocin]: the inhibition at 110 µM by setting is: under setting [1], 10%; under setting [2], 11%.

For `C/C=C(/C)C(=O)O[C@H]1[C@H](OC(C)=O)[C@]2(CO)[C@H](O)C[C@]3(C)C(=CC[C@@H]4[C@@]5(C)CC[C@H](O[C@@H]6O[C@H](C(=O)O)[C@@H](O[C@@H]7O[C@H](CO)[C@@H](O)[C@H](O)[C@H]7O)[C@H](O)[C@H]6O[C@@H]6O[C@H](CO)[C@@H](O)[C@H](O)[C@H]6O)[C@](C)(CO)[C@@H]5CC[C@]43C)[C@@H]2CC1(C)C` [Escin IB], the inhibition at 110 µM came out at 0% under setting [1] and 0% under setting [2].

Take `C[C@@H]1O[C@@H](O[C@H]2[C@H](O)[C@@H](O)[C@H](OC[C@H]3O[C@@H](OC(=O)[C@]45CCC(C)(C)C[C@H]4C4=CC[C@@H]6[C@@]7(C)C[C@@H](O)[C@H](O)[C@@](C)(CO)[C@@H]7[C@H](O)C[C@@]6(C)[C@]4(C)CC5)[C@H](O)[C@@H](O)[C@@H]3O)O[C@@H]2CO)[C@H](O)[C@H](O)[C@H]1O` [Asiaticoside B]: the inhibition at 110 µM is, setting by setting: under setting [1], 0%; under setting [2], 5%.

Regarding `CO[C@H]1/C=C/O[C@@]2(C)Oc3c(C)c(O)c4c(c3C2=O)C2=NC3(CCN(CC(C)C)CC3)NC2=C(NC(=O)/C(C)=C\C=C\[C@H](C)[C@H](O)[C@@H](C)[C@@H](O)[C@@H](C)[C@H](OC(C)=O)[C@@H]1C)C4=O` [Rifabuti n], the inhibition at 110 µM is 41% under setting [1] and 2% under setting [2].

With `Cn1c([N+](=O)[O-])cnc1COC(N)=O` [Ronidazole], the inhibition at 110 µM under setting [1] was 9% and the inhibition at 110 µM under setting [2] was 0%.

Consider `COc1cc(-c2coc3cc4c(c(OC)c3c2=O)OCO4)cc(OC)c1OC` [Irisflorentin], for which the inhibition at 110 µM worked out at 26% under setting [1] and 34% under setting [2].

As for `CC(C)=CCC[C@](C)(O[C@@H]1O[C@H](CO)[C@@H](O)[C@H](O)[C@H]1O)[C@H]1CC[C@]2(C)[C@@H]1[C@H](O)C[C@@H]1[C@@]3(C)CC[C@H](O[C@@H]4O[C@H](CO)[C@@H](O)[C@H](O)[C@H]4O)C(C)(C)[C@@H]3CC[C@]12C` [Ginsenoside F2], the inhibition at 110 µM reads like this: under setting [1], 0%; under setting [2], 45%.

`C[C@]1(COc2ccc(N3CCC(Oc4ccc(OC(F)(F)F)cc4)CC3)cc2)Cn2cc([N+](=O)[O-])nc2O1` [Delamanid]: the inhibition at 110 µM stood at 42% under setting [1] and 21% under setting [2].

Consider `C=C1C(=O)O[C@@]23[C@H]1CC[C@@H](C)[C@@H]2CC[C@@]1(C)O[C@@H]31` [Arteannuin B], for which the inhibition at 110 µM turned out to be 13% under setting [1] and 11% under setting [2].

Turning to `Nc1ccc(S(=O)(=O)Nc2ccc(Cl)nn2)cc1` [Sulfachloropyridazine], the inhibition at 110 µM under setting [1] was found to be 14% and the inhibition at 110 µM under setting [2] turned out to be 0%.

`CC1=CC(=O)[C@@H](O)[C@]2(C)[C@H]3[C@@H](O)[C@H](O)[C@]4(CO)OC[C@@]35[C@@H](C[C@@H]12)OC(=O)[C@H](O)[C@]54O` [Yadanziolide A]: the inhibition at 110 µM turned out to be 0% under setting [1] and 36% under setting [2].

Consider `CCN1CCN(C(=O)N[C@@H](C(=O)N[C@@H]2C(=O)N3C(C(=O)O)=C(CSc4nnnn4C)CS[C@H]23)c2ccc(O)cc2)C(=O)C1=O` [Cefoperazone], for which the inhibition at 110 µM was found to be 22% under setting [1] and 7% under setting [2].

In the case of `COc1ccccc1OCC(O)CO` (stereo not shown) [Guaifenesin], the inhibition at 110 µM is, setting by setting: under setting [1], 46%; under setting [2], 27%.

Turning to `Oc1cc(O)c2c(c1)O[C@@H](c1ccc(O)c(O)c1)[C@H](O)C2` [(‐)‐Catechin], the inhibition at 110 µM came to 8% under setting [1] and 9% under setting [2].
